Results published in the supplement of paper PMC10307832.

Legend:
Assay in all cases: relative viability (nuclei count vs DMSO), 5 days (fraction); higher = more cells survive
[1] = compound: CN(C)CC1=CC(=CC=C1)N=C(C2=CC=CC=C2)C3=C(NC4=C3C=CC(=C4)C(=O)N(C)C)O + O=C(CCCCCCC(=O)Nc1ccccc1)NO [Vorinostat] (partner 1 µM)
How it was run: (§1)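 Lung cancer cell lines, seeded in 1536-well plates, were treated the following day by pin tool with a single drug or with five library-drug doses (not always all listed) in √10 steps on top of a fixed anchor-drug dose. Cells were fixed and nuclei stained in one step after 5 days, and nuclei were counted. Relative viability is the nuclei count for treated wells divided by that for vehicle wells, reported as medians of duplicate plates.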

[2] = compound: CN(C)CC1=CC(=CC=C1)N=C(C2=CC=CC=C2)C3=C(NC4=C3C=CC(=C4)C(=O)N(C)C)O + CC1(C)CCC(c2ccc(Cl)cc2)=C(CN2CCN(c3ccc(C(=O)NS(=O)(=O)c4ccc(N[C@H](CCN5CCOCC5)CSc5ccccc5)c(S(=O)(=O)C(F)(F)F)c4)cc3)CC2)C1 [Navitoclax] (partner 0.5 µM)
How it was run: as §1

[3] = compound: CN(C)CC1=CC(=CC=C1)N=C(C2=CC=CC=C2)C3=C(NC4=C3C=CC(=C4)C(=O)N(C)C)O + C[C@@H](Oc1cc(-c2cnn(C3CCNCC3)c2)cnc1N)c1c(Cl)ccc(F)c1Cl [Crizotinib] (partner 1 µM)
How it was run: as §1

[4] = compound: CN(C)CC1=CC(=CC=C1)N=C(C2=CC=CC=C2)C3=C(NC4=C3C=CC(=C4)C(=O)N(C)C)O + Cc1nc(Nc2ncc(C(=O)Nc3c(C)cccc3Cl)s2)cc(N2CCN(CCO)CC2)n1 [Dasatinib] (partner 0.075 µM)
How it was run: as §1

Cell Line	relative viability ([1]; first compound 0.08 µM)	relative viability ([1]; first compound 0.253 µM)	relative viability ([1]; first compound 0.8 µM)	relative viability ([1]; first compound 2.53 µM)	relative viability ([1]; first compound 8 µM)	relative viability ([2]; first compound 0.08 µM)	relative viability ([2]; first compound 0.253 µM)	relative viability ([2]; first compound 0.8 µM)	relative viability ([2]; first compound 2.53 µM)	relative viability ([2]; first compound 8 µM)	relative viability ([3]; first compound 0.08 µM)	relative viability ([3]; first compound 0.253 µM)	relative viability ([3]; first compound 0.8 µM)	relative viability ([3]; first compound 2.53 µM)	relative viability ([3]; first compound 8 µM)	relative viability ([4]; first compound 0.08 µM)	relative viability ([4]; first compound 0.253 µM)	relative viability ([4]; first compound 0.8 µM)	relative viability ([4]; first compound 2.53 µM)	relative viability ([4]; first compound 8 µM)
HARA	0.6	0.528	0.433	0.715	0.487	1.14	1.14	1.18	1.15	1.13	1.02	1.02	1.05	1.02	1.11	0.227	0.306	0.231	0.258	0.241
H3255	0.826	0.987	–	0.777	0.845	0.608	0.457	0.514	0.545	0.552	0.958	0.782	0.756	0.795	0.85	0.342	0.337	0.316	0.381	0.339
SK-LU-1	0.796	0.861	0.735	0.847	0.581	1.05	0.898	0.778	0.651	0.791	1	1.08	0.982	0.825	0.613	0.185	0.199	0.188	0.196	0.163
NCI-H1793	0.826	0.812	0.563	0.821	0.859	0.387	0.439	0.269	0.492	0.406	–	–	–	–	–	0.438	0.387	–	0.425	0.411
EMC-BAC-2	0.476	0.548	0.463	0.463	0.653	1.13	1.15	1.17	1.18	1.1	0.725	0.772	0.804	0.753	0.681	0.358	0.388	0.308	0.348	0.318
NCI-H2405	1.1	1.01	1.06	0.987	1.01	1.17	0.759	1.1	0.786	0.742	0.808	0.822	0.827	0.775	0.758	0.206	0.222	0.237	0.204	0.183
EPLC-272H	0.426	0.519	0.402	0.49	0.315	1.35	1.08	0.913	1.14	1.11	0.892	0.899	0.696	0.87	0.8	0.419	0.334	0.304	0.382	0.357
LXF-289	0.778	0.745	0.756	0.72	0.727	0.959	0.911	0.946	0.945	0.809	0.871	0.762	0.758	0.773	0.757	0.203	0.216	0.246	0.242	0.205
NCI-H1299	–	–	–	–	–	1.14	1.05	1.09	1.03	1.01	0.92	0.93	0.988	0.834	0.939	–	–	–	–	–
NCI-H1395	0.705	0.845	0.886	0.589	0.701	1.23	1.13	1.22	0.965	1.12	–	–	–	–	–	0.402	0.373	0.455	0.433	0.399
NCI-H596	0.575	0.72	0.585	0.554	0.862	0.967	0.93	0.911	0.977	0.83	1	0.952	1.04	0.968	0.785	0.575	0.648	0.628	0.618	0.602
201T	0.988	0.961	0.908	0.946	0.879	1.2	1.23	1.14	1.17	1.18	1.03	1.03	1.02	1.02	0.981	0.544	0.603	0.575	0.54	0.493
NCI-H1944	0.737	0.589	0.571	0.455	0.469	1.21	0.937	0.951	0.947	0.908	1.06	1.04	1.06	1.08	1.11	0.216	0.234	0.219	0.179	0.156
NCI-H322M	0.8	0.957	0.874	0.743	0.67	1.18	1.13	1.07	1.06	1.15	0.931	0.899	0.928	0.887	0.853	0.253	0.266	0.251	0.247	0.252
NCI-H1755	0.739	0.768	0.717	0.715	0.766	1.02	1.01	0.998	0.972	0.961	0.792	0.897	0.789	0.758	0.825	0.487	0.45	0.374	0.402	0.348
NCI-H1915	0.528	0.512	0.501	0.516	0.415	0.819	0.75	0.782	0.791	0.805	0.886	0.885	0.989	0.832	0.848	0.365	0.369	0.318	0.323	0.292
NCI-H2228	0.653	0.583	0.977	0.65	0.542	0.868	0.909	0.731	0.803	0.663	0.406	0.505	0.442	0.432	0.361	0.518	0.484	0.479	0.424	0.412
NCI-H2347	0.604	0.736	0.617	0.539	0.565	0.898	0.878	0.67	0.775	0.871	0.734	0.727	0.73	0.703	0.58	0.347	0.326	0.293	0.252	0.2
PC-14	0.576	0.675	0.833	0.687	0.592	1.08	1.03	0.965	1.03	1.07	0.948	0.885	0.842	0.786	1.01	0.289	0.273	0.324	0.247	0.197

Cell Line	relative viability ([1]; first compound 0.08 µM)	relative viability ([1]; first compound 0.253 µM)	relative viability ([1]; first compound 0.8 µM)	relative viability ([1]; first compound 2.53 µM)	relative viability ([1]; first compound 8 µM)	relative viability ([2]; first compound 0.08 µM)	relative viability ([2]; first compound 0.253 µM)	relative viability ([2]; first compound 0.8 µM)	relative viability ([2]; first compound 2.53 µM)	relative viability ([2]; first compound 8 µM)	relative viability ([3]; first compound 0.08 µM)	relative viability ([3]; first compound 0.253 µM)	relative viability ([3]; first compound 0.8 µM)	relative viability ([3]; first compound 2.53 µM)	relative viability ([3]; first compound 8 µM)	relative viability ([4]; first compound 0.08 µM)	relative viability ([4]; first compound 0.253 µM)	relative viability ([4]; first compound 0.8 µM)	relative viability ([4]; first compound 2.53 µM)	relative viability ([4]; first compound 8 µM)
NCI-H727	–	0.972	1.35	1.45	1.23	0.574	0.428	0.371	0.471	0.498	0.772	0.808	0.78	0.795	0.699	0.357	0.374	0.382	0.54	0.509
NCI-H647	0.477	0.561	0.423	0.421	0.649	1.15	0.962	1.34	0.916	0.976	1.01	0.987	1.08	0.727	0.671	0.201	0.235	0.173	0.195	0.111
EKVX	0.778	0.726	0.648	0.858	0.773	0.908	0.82	0.956	0.885	1	0.842	0.921	1.03	0.879	0.981	0.523	0.465	0.56	0.535	0.573
NCI-H838	0.722	0.726	0.716	0.703	0.597	1.22	1.16	1.2	1.07	0.985	0.825	0.784	0.861	0.659	0.755	0.304	0.304	0.247	0.281	0.284
NCI-H1437	0.918	0.886	0.975	0.943	1.1	1.2	1.08	1.09	1.06	1.12	0.898	0.949	0.992	0.813	0.959	0.393	0.402	0.392	0.336	0.416
NCI-H1648	0.518	0.585	–	0.512	0.446	–	–	–	–	–	–	–	–	–	–	–	–	–	–	–
Calu-6	–	–	–	–	–	0.815	0.831	0.963	0.888	0.928	0.758	0.749	0.762	0.814	0.859	–	–	–	–	–
SW 900	0.56	0.495	0.452	0.606	0.606	–	–	–	–	–	–	–	–	–	–	0.364	0.582	0.55	0.622	0.573
NCI-H650	0.452	0.553	0.557	0.418	0.395	–	–	–	–	–	0.772	0.647	0.677	0.561	0.645	0.521	0.487	0.447	0.461	0.447
LCLC-103H	0.815	0.801	0.782	0.793	0.57	–	–	–	–	–	1.14	1.06	0.914	1.02	0.979	0.482	0.487	0.435	0.42	0.497
NCI-H358	0.73	0.629	0.585	0.582	0.482	–	–	–	–	–	0.506	0.501	0.513	0.484	0.443	0.171	0.158	0.138	0.163	0.183
NCI-H1563	–	–	–	–	–	–	–	–	–	–	0.872	0.871	0.833	0.846	0.771	0.437	0.489	0.579	0.389	0.411
HCC-44	1.18	1.09	1.2	1.1	1.29	0.948	0.95	0.942	0.995	0.994	0.801	0.752	0.785	0.727	0.89	–	–	–	–	–
IA-LM	0.911	0.848	0.903	0.958	1.02	–	0.848	0.766	0.915	1.02	0.937	0.797	0.906	0.926	1.04	–	–	–	–	–
ABC-1	1.34	1.21	1.1	0.895	1.14	–	–	–	–	–	1.17	1.12	1.01	0.764	0.891	0.619	0.617	0.557	0.605	0.577
NCI-H522	0.986	0.984	0.89	0.977	0.843	–	–	–	–	–	–	–	–	–	–	0.938	0.97	0.788	0.837	0.982
NCI-H661	0.901	0.756	0.769	0.751	0.748	–	–	–	–	–	–	0.981	1.03	0.862	0.994	0.979	0.747	0.679	0.8	0.856
NCI-H1703	–	–	–	–	–	1.07	1.17	1.1	0.717	0.222	0.65	0.591	0.715	0.341	0.138	–	–	–	–	–
NCI-H1792	–	–	–	–	–	0.606	0.594	0.573	0.61	0.662	0.68	0.97	0.954	0.786	0.915	0.903	0.856	0.851	0.646	0.598
